Results taken from ChEMBL document CHEMBL3044581, “Synthesis and fungicidal activities of silicon-containing derivatives of 2-aryl-3-(1H-1,2,4-triazol-1-yl)propanenitriles” (2001).

How the values were obtained:
Rhizoctonia solani = assay: Antifungal activity against Rhizoctonia solani infected compound-pre-treated rice seedlings at 300 ppm incubated for 2 days prior to infection measured after 4 days relative to diclomezine; assay type: functional
Podosphaera fuliginea = assay: Antifungal activity against Podosphaera fuliginea infected compound-pre-treated cucumber seedlings at 300 ppm incubated for 2 days prior to infection measured after 4 days relative to buthiobate; assay type: functional

Row | Structure (SMILES) | Activity_index (Rhizoctonia solani) | Activity_index (Podosphaera fuliginea)
1 | C[Si](C)(CC(C#N)(Cn1cncn1)c1ccc(Cl)cc1)c1ccccc1 (centres undefined) | 0 | 2
2 | C[Si](C)(C)CC(C#N)(Cn1cncn1)c1ccccc1Cl (centres undefined) | 2 | 0
3 | C[Si](C)(C)CC(C#N)(Cn1cncn1)c1cccc(Cl)c1 (centres undefined) | 0 | 2
4 | C[Si](C)(CC(C#N)(Cn1cncn1)c1cccc(Oc2ccccc2)c1)c1ccccc1 (centres undefined) | 0 | 0
5 | C[Si](C)(C)CC(C#N)(Cn1cncn1)c1ccc(Cl)c(Cl)c1 (centres undefined) | 0 | 2
6 | C[Si](C)(C)CC(C#N)(Cn1cncn1)c1ccc(Cl)cc1 (centres undefined) | 2 | 0
7 | COc1ccc(C(C#N)(Cn2cncn2)C[Si](C)(C)C)cc1 (centres undefined) | 2 | 2
8 | C[Si](C)(C)CC(C#N)(Cn1cncn1)c1ccccc1 (centres undefined) | 2 | 2
9 | Cc1ccc(C(C#N)(Cn2cncn2)C[Si](C)(C)C)cc1 (centres undefined) | 0 | 2
10 | C[Si](C)(CC(C#N)(Cn1cncn1)c1ccccc1)c1ccccc1 (centres undefined) | 0 | 2
11 | C[Si](C)(C)CC(C#N)(Cn1cncn1)c1ccc(Cl)cc1Cl (centres undefined) | 2 | 2
12 | C[Si](C)(C)CC(C#N)(Cn1cncn1)c1ccc(F)cc1 (centres undefined) | 2 | 0
